The values below come from patent publication US20210000783A1, “USE OF EXTRACT OF VEGETATION WATERS FOR TREATING DAMAGE TO THE CARDIOVASCULAR SYSTEM” (FATTORIA LA VIALLA DI GIANNI, ANTONIO E BANDINO LO FRANCO - …, priority 2017, published 2021).

The data set has as its system zebrafish (Danio rerio) embryos. Description: Heart rate of zebrafish embryos with doxorubicin-induced cardiotoxicity. Type of data set: in vivo. The conditions noted are these: doxorubicin alone 3 μg/ml. Here is the method:
The embryos were treated with the polyphenol concentrate of the present invention (sample A009), at the dilutions 1:100 and 1:500, alone or in association with Doxorubicin (3 μg/mL). A pre-treatment was performed with A009, followed by administration of Doxorubicin and A009+Doxorubicin co-treatment. NT=not-treated cells. ^∘∘∘=p<0.0001 with respect to not-treated embryos; ***=p<0.001 with respect to embryos treated with doxorubicin alone;
The embryos were treated with the polyphenol concentrate of the present invention (sample A009), at the dilutions 1:100 and 1:500, alone or in association with Doxorubicin (3 μg/mL). A pre-treatment was performed with A009, followed by administration of Doxorubicin and A009+Doxorubicin co-treatment. NT=not-treated cells. ^∘∘∘=p<0.0001 with respect to not-treated embryos; ***=p<0.001 with respect to embryos treated with doxorubicin alone.
To evaluate the cardioprotective effect of the polyphenol concentrate of the invention, the zebrafish was used in vivo as the animal model to study. In particular the experiments were performed on zebrafish (Danio rerio) embryos incubated for 24, 48 and 72 hours after fertilization. […]

As to `COc1cccc2c1C(=O)c1c(O)c3c(c(O)c1C2=O)C[C@@](O)(C(=O)CO)C[C@@H]3O[C@H]1C[C@H](N)[C@H](O)[C@H](C)O1` [doxorubicin], the “heart rate of zebrafish embryos” value (48 hours, FIG. 2) was “significantly reduces their heart rate” and the “heart rate of zebrafish embryos” value (72 hours, FIG. 3) is given as “significantly reduces their heart rate”.
